Reference: US7217704B2, “LPA receptor agonists and antagonists and methods of use” (The University of Tennessee Research Foundation, priority 2003, dated 2007)
Entries after “also recorded” stand apart in the source; their conditions may differ. Where two headings read alike, the source gives them in different places.

Tests used:
LPA1 = target: T1, LPA1 (Homo sapiens, UniProt Q92633); assay: Ca2+ transients (agonism / inhibition of LPA response) in RH7777 cells stably expressing LPA1; format: cell-based; settings: for effect at LPA1 in words: Ca2+ transients
T1 construct: expressed in transfected cells
Experimental: (§1) The culture medium (DMEM containing 10% FBS) was then replaced with modified Krebs solution (120 mM NaCl, 5 mM KCl, 0.62 mM MgSO4, 1.8 mM CaCl2, 10 mM HEPES, 6 mM glucose, pH 7.4) and the cells were serum starved for 6–8 hours (12 h for PC-3 cells). Cells were loaded with Fura-2 AM for 35 minutes in modified Krebs medium. The Fura-2 was removed before loading the plate in the FlexStation instrument by replacing the medium once again with 100 μl modified Krebs medium/well. Plates were incubated for 4 minutes in the instrument to allow for warming to 37° C. Changes in intracellular Ca^2+ concentration were monitored by measuring the ratio of emitted light intensity at 520 nm in response to excitation by 340 nm and 380 nm wavelength lights, respectively. Each well was monitored for 80–120 seconds. […] Time courses were recorded using the SoftMax Pro software (Molecular Devices, Sunnyvale, Calif.). Ca^2+ transients were quantified automatically by calculating the difference between maximum and baseline ratio values for each well.
(§2) Each FAP analog was tested for the ability to induce Ca^2+ transients in RH7777 cells transfected with LPA1-3 receptors (agonism), as well as the ability to inhibit LPAinduced Ca^2+ transients in the same cells (antagonism) (Table 3).

LPA2 = target: T2, LPA2 (Homo sapiens, UniProt Q9HBW0); assay: Ca2+ transients (agonism / inhibition of LPA response) in RH7777 cells stably expressing LPA2; format: cell-based
T2 construct: expressed in transfected cells
Experimental: as §1, §2

LPA3 = target: T3, LPA3 (Homo sapiens, UniProt Q9UBY5); assay: Ca2+ transients (agonism / inhibition of LPA response) in RH7777 cells stably expressing LPA3; format: cell-based; settings: for effect at LPA3 in words: Ca2+ transients
T3 construct: expressed in transfected cells
T3 sequence (Q9UBY5 1-353): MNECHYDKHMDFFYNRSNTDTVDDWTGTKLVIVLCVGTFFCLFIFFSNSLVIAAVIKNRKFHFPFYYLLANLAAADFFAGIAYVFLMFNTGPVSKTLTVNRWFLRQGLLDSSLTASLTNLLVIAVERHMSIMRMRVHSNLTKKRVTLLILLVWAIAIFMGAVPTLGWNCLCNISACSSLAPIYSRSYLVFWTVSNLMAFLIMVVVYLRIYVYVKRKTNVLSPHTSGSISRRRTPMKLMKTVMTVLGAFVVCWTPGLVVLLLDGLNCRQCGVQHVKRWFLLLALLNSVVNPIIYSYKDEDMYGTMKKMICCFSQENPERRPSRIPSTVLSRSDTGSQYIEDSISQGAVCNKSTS
Experimental: as §1, §2

PC-3 cells = assay: Ca2+ transients in PC-3 cells endogenously expressing LPA1-3; format: cell-based, human; settings: for effect in PC-3 cells in words: Ca2+ transients
Experimental: as §1
We tested the FAP analogs in PC-3 cells, which unlike the transfected RH7777 cells endogenously express LPA1-3 receptors.

[1] = RH7777, maximal efficacy of the drug/maximal efficacy of LPA 18:1, read-out: LPA2 (Emax)
[2] = inhibition of LPA-induced Ca2+ transients, RH7777 cells expressing LPA2, read-out: LPA2 IC50
[3] = induction of Ca2+ transients, RH7777 cells expressing LPA1, read-out: LPA1 EC50
[4] = induction of Ca2+ transients, RH7777 cells expressing LPA3, read-out: LPA3 EC50
[5] = inhibition of LPA-induced Ca2+ transients, RH7777 cells expressing LPA3, read-out: LPA3 (Ki)
[6] = inhibition of LPA-induced Ca2+ transients, RH7777 cells expressing LPA3, read-out: LPA3 IC50
[7] = Homo sapiens, inhibition of LPA-induced Ca2+ transients, PC-3 cells, read-out: PC-3 IC50
[8] = inhibition of LPA-induced Ca2+ transients, PC-3 cells
[9] = induction of Ca2+ transients, RH7777 cells expressing LPA2, read-out: LPA2 EC50
[10] = inhibition of LPA-induced Ca2+ transients, RH7777 cells expressing LPA1, read-out: LPA1 IC50
[11] = Homo sapiens, PC-3, read-out: PC-3 IC50
[12] = Homo sapiens, PC-3, read-out: PC-3 (Emax)
[13] = inhibition of LPA-induced Ca2+ transients, PC-3 cells, read-out: PC-3 IC50

T1 sequence (Q92633 whole entry): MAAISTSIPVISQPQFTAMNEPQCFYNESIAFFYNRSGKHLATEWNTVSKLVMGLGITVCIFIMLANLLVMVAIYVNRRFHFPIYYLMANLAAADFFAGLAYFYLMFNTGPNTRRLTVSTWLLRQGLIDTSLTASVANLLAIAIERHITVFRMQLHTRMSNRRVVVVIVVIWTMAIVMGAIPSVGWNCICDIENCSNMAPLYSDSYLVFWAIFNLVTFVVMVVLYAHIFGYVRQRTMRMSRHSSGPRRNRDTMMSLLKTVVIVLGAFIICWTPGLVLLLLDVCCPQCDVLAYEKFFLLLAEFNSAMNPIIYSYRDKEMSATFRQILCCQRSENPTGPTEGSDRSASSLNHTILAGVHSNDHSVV
T2 sequence (Q9HBW0 whole entry): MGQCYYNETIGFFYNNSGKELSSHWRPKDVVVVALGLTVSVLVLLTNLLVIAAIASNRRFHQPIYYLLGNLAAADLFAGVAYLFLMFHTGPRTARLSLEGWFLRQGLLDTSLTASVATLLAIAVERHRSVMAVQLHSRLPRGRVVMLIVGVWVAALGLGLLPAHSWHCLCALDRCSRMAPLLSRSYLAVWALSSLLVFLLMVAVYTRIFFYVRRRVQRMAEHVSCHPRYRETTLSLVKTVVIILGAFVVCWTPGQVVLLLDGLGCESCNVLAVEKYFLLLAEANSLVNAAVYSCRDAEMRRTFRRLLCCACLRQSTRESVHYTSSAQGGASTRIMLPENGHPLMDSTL

| SMILES | IC50 (LPA2; [2]) | EC50 (LPA1; [3]) | EC50 (LPA3; [4]) | Ki (LPA3; [5]) | IC50 (LPA3; [6]) | Ki (PC-3 cells; [8]) | EC50 (LPA2; [9]) | IC50 (LPA1; [10]) | EC50 (LPA3) | EC50 (LPA1) | IC50 (LPA1) | IC50 (PC-3 cells; [11]) | other results |
| --- | --- | --- | --- | --- | --- | --- | --- | --- | --- | --- | --- | --- | --- |
| CCCCCCCCOC[C@@H](COP(O)(O)=S)OCCCCCCCC [(S) enantiomer] |  |  |  |  |  |  |  |  |  |  |  |  | IC50 (LPA1; for 200 nM LPA, formula (VII)A enantiomer, method not stated at b93, read-out: IC50 for LPA1): 0.184 µM |
| C=CCCCCCCCCOP(=O)(O)O [Compound 5a, Phosphoric acid monodec-9-enyl ester] | > 30 µM | > 30 µM | > 30 µM | 0.504 µM | 0.77 µM | 0.574 µM |  |  |  |  |  |  | Emax (LPA2; [1]): 100%; IC50 (PC-3 cells; [7]): 1.51 µM |
| CCCCCC=CCCCOP(=O)(O)O [Compound 5b, Phosphoric acid monodec-4-enyl ester] | > 30 µM | > 30 µM |  |  |  | 0.735 µM | > 10 µM | > 10 µM | > 30 µM |  |  |  | IC50 (LPA3): 0.83 µM; Ki (LPA3): 0.37 µM; IC50 (PC-3 cells; [7]): 1.3 µM |
| CCC=CCCCCCCCCOP(=O)(O)O [Compound 5c, Phosphoric acid monododec-9-enyl ester] | > 30 µM | > 30 µM | > 30 µM | 0.027 µM | 0.032 µM | 0.39 µM | 0.717 µM | > 10 µM |  |  |  |  | IC50 (PC-3 cells; [7]): 0.916 µM |
| CCCCC=CCCCCCCCCOP(=O)(O)O [Compound 5d, Phosphoric acid monotetradec-9-enyl ester] | > 30 µM |  | > 30 µM | 0.058 µM | 0.096 µM | 0.123 µM | 0.397 µM |  |  |  |  |  | Emax (LPA2; [1]): 58%; IC50 (PC-3 cells; [7]): 0.241 µM |
| CCC=CCCCCCCCCCCOP(=O)(O)O [Compound 5e, Phosphoric acid monotetradec-11-enyl ester] | > 30 µM |  | > 30 µM | 0.04 µM | 0.103 µM |  | 4.1 µM |  |  |  |  |  | Emax (LPA2; [1]): 75% |
| CCCCCCCCC=CCCCCCCCCOP(=O)(O)O [Compound 5f, Phosphoric acid monooctadec-9-enyl ester] | > 30 µM | > 30 µM | > 30 µM |  | > 30 µM |  | > 30 µM | > 30 µM |  |  |  |  | effect at LPA1 in words (LPA1; RH7777 cells expressing LPA1): did not inhibit nor did it activate Ca^2+ mobilization; also recorded: potentiated LPA response; effect at LPA3 in words (LPA3; RH7777 cells expressing LPA3): did not inhibit nor did it activate Ca^2+ mobilization; also recorded: potentiated LPA response; Emax (PC-3 cells; Homo sapiens, PC-3, maximal efficacy of the drug/maximal efficacy of LPA 18:1, read-out: PC-3 (Emax)): 11% |
| CCCCCCCCCCOP(O)(O)=S [Compound 8a, Thiophosphoric acid O-decyl ester] |  |  |  | 0.049 µM | 0.122 µM | 0.521 µM |  |  | > 30 µM | > 30 µM | > 30 µM | 1.22 µM |  |
| CCCCCCCCCCCCOP(O)(O)=S [Compound 8b, Thiophosphoric acid O-dodecyl ester] |  |  |  | 0.014 µM | 0.028 µM | 1.3 µM |  |  | > 30 µM | > 30 µM | > 30 µM | 2.84 µM |  |
| CCCCCCCCCCCCCCOP(O)(O)=S [Compound 8c, Thiophosphoric acid O-tetradecyl ester] |  |  |  | 0.076 µM | 0.162 µM |  |  |  | > 30 µM | > 30 µM | > 30 µM | > 30 µM | EC50 (PC-3 cells; Homo sapiens, PC-3, read-out: PC-3 EC50): > 30 µM |
| C=CCCCCCCCCOP(O)(O)=S [Compound 8d, Thiophosphoric acid O-dec-9-enyl ester] |  |  |  | 0.128 µM | 0.34 µM | 0.533 µM |  |  | > 30 µM | > 30 µM | > 30 µM | 1 µM | IC50 (LPA2): > 30 µM; Emax (LPA2; RH7777, read-out: LPA2 (Emax)): 56% |
| CCC=CCCCCCCCCOP(O)(O)=S [Compound 8e, Thiophosphoric acid O-dodec-9-enyl ester] |  |  |  |  |  | 1.46 µM |  |  | > 30 µM | > 30 µM | > 30 µM | 2.97 µM | EC50 (LPA2): 0.677 µM; IC50 (LPA2): > 30 µM; Emax (LPA2; RH7777, read-out: LPA2 (Emax)): 100%; IC50 (LPA3): 0.027 µM; Ki (LPA3): 0.014 µM; effect at LPA3 in words (LPA3; RH7777 cells expressing LPA3): equipotent antagonist as 8f; effect in PC-3 cells in words (PC-3 cells; PC-3 cells): both independent activation and inhibition of LPA-induced Ca^2+ transients; Emax (PC-3 cells; [12]): 27% |
| CCCCC=CCCCCCCCCOP(O)(O)=S [Compound 8f, Thiophosphoric acid O-tetradec-9-enyl ester] |  |  |  |  |  | 0.397 µM |  |  | > 30 µM | > 30 µM | > 30 µM | 0.938 µM | EC50 (LPA2): 0.48 µM; IC50 (LPA2): > 30 µM; Emax (LPA2; RH7777, read-out: LPA2 (Emax)): 150%; effect at LPA1 in words (LPA1; RH7777 cells expressing LPA1): no effect on the LPA-induced Ca^2+ mobilization; IC50 (LPA3): 0.028 µM; Ki (LPA3): 0.014 µM; effect in PC-3 cells in words (PC-3 cells; PC-3 cells): both independent activation and inhibition of LPA-induced Ca^2+ transients; Emax (PC-3 cells; [12]): 40% |
| CCCCCCCCCCP(=O)(O)O [Compound 9a, n-decyl-phosphonate] | > 30 µM | > 30 µM | > 30 µM | 0.068 µM | 1.2 µM | 1.5 µM | > 30 µM | > 30 µM |  |  |  |  | IC50 (PC-3 cells; [13]): 3.12 µM |
| CCCCCCCCCCCCP(=O)(O)O [Compound 9b, n-dodecyl-phosphonate] | > 30 µM | > 30 µM | > 30 µM | 0.303 µM | 0.654 µM | 1.27 µM | > 30 µM | > 30 µM |  |  |  |  | IC50 (PC-3 cells; [13]): 2.64 µM |
| CCCCCCCCCCCCCCP(=O)(O)O [Compound 9c, n-tetradecyl-phosphonate] | 5.5 µM | > 30 µM | > 30 µM | 1.12 µM | 3.1 µM | 4.62 µM | > 30 µM | ~10 µM |  |  |  |  | effect at LPA2 in words (LPA2; Ca2+ transients, RH7777 cells expressing LPA2): IC50 values in the micromolar range; Ki (LPA2; inhibition of LPA-induced Ca2+ transients, RH7777 cells expressing LPA2): 3.55 µM; effect at LPA1 in words (LPA1; RH7777 cells expressing LPA1): IC50 values in the micromolar range; effect at LPA3 in words (LPA3; RH7777 cells expressing LPA3): IC50 values in the micromolar range; IC50 (PC-3 cells; [13]): 9.67 µM |
| CCCCCCCCCCCCCCCCCCP(=O)(O)O [Compound 9d, n-octadecyl-phosphonate] | > 30 µM | > 30 µM | > 30 µM |  | > 30 µM |  | > 30 µM | > 30 µM |  |  |  |  | EC50 (PC-3 cells; induction of Ca2+ transients, PC-3 cells, read-out: PC-3 EC50): > 30 µM; IC50 (PC-3 cells; [13]): > 30 µM |
| CCCCCCCCCCCCCCC(F)(F)P(=O)(O)O [Compound 11, (1,1-Difluoro-pentadecyl) Phosphonic Acid] | > 30 µM | > 30 µM | > 30 µM | 0.575 µM | 1.51 µM |  |  | 2.5 µM |  |  |  |  | Emax (LPA2; [1]): 40%; EC50 (LPA2; RH7777 cells expressing LPA2, read-out: LPA2 EC50): 10 µM; Ki (LPA1; inhibition of LPA-induced Ca2+ transients, RH7777 cells expressing LPA1): 0.788 µM; inhibition of LPA response at LPA1 (partial antagonism) (LPA1; maximal inhibition): 40% |
